We go through one compound from article PMC9742383, “From tryptamine to the discovery of efficient multi-target directed ligands against cholinesterase-associated neurodegenerative disorders” (Frontiers in Pharmacology, 2022).

Structures are written as SMILES. Like-named read-outs stand apart in the source and are kept apart here.

Data set [1] can be described thus: in vitro. The following applies: human, hepg2; read-out: ^a IC50 ± SD (μM) / HepG2. Set-up: species or system SH-SY5Y, LO2; MTT cytotoxicity, absorbance at 570 nm. The protocol: (§1) The cell lines present in this study were purchased from the China Center for Type Collection (CCTCC, China). For cytotoxicity assay, HT-22, BV2, SH-SY5Y, HepG2, and LO2 cells were incubated in 96-well plates at the density of 5 × 10³ per well. After incubation for 12 h at 37°C, the tested compounds with the required concentrations were added to the corresponding wells and continuously incubated for 24 h at 37°C. Then, the prepared MTT (3-[4,5-dimethyl-2-thiazolyl]-2,5-diphenyl-2H-tetrazolium bromide) solution was added to each well and co-incubated for another 4 h at 37°C. Then, the supernatant was removed, and 100 μl DMSO was added to each well. The OD value of each well was detected at 570 nm using a microplate reader (Bio-Rad Laboratories, CA, United States). The IC50 values were calculated using IBM SPSS Statistics 25.0 software. All experiments were performed in triplicate, and the results were shown as the mean ± SD. In order to further evaluate the applicability of the compounds with dibenzyl groups for neurological diseases, we also tested the cytotoxicity of the selected compounds (2f, 2h, 2j, 2m, 2o-2r, 2t, and 2u) bearing little toxicity on HT-22 cells, microglia cell line BV2, and human neuroblastoma cell line SH-SY5Y, which are widely used in the study of neurological diseases. […] In view of some carbamate-based ChE inhibitors reported to be hepatotoxic, we further performed the preliminary evaluation of the hepatotoxicity of the selected compounds on human normal liver cell line LO2 and human hepatocellular carcinoma cell line HepG2.

The nature of data set [2]: in vitro. Also on record: species or system LO2, HepG2; MTT cytotoxicity, absorbance at 570 nm. Particulars: human, sh-sy5y; read-out: ^a IC50 ± SD (μM) / SH-SY5Y. The protocol: as §1
Data set [3] is described as follows: in vitro. Also on record: species or system SH-SY5Y, HepG2; MTT cytotoxicity, absorbance at 570 nm. Particulars: human, lo2 cells; read-out: ^a IC50 ± SD (μM) / LO2. How it is done: as §1
The target of another data set is BuChE (Equus caballus, UniProt P81908). As to the kind of experiment: time-dependent Ellman assay, kobs analysis. Also on record: gene BCHE. Particulars: read-out: kc; equilibrium constant of reversible step before carbamylation; covalent. (In general: Ellman's reagent forms a yellow product with free thiols.)
BuChE, sequence (P81908 whole entry): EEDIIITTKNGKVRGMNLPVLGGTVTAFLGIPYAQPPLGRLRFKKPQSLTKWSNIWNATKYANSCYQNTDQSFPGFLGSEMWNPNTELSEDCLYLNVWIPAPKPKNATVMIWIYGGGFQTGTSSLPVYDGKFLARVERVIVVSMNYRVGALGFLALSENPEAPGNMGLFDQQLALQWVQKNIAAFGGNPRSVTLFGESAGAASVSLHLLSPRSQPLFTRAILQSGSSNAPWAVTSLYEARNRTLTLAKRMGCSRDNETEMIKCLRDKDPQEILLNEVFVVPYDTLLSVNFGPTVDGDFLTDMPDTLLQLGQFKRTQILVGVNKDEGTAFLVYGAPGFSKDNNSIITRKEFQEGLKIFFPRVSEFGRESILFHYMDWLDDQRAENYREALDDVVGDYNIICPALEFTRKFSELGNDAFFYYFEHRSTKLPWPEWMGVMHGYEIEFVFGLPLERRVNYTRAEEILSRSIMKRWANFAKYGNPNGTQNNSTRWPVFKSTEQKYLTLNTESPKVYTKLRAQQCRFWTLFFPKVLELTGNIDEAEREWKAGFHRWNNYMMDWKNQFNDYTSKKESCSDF

Consider `CCN(C)C(=O)Oc1cccc([C@H](C)N(C)C)c1` [rivastigmine], for which the CC50 at 24 h in “in vitro [1]”, in “in vitro [2]” and in the data set “in vitro [3]” was greater than 100 µM throughout. The KI (inactivation) on BuChE came to 0.0559 µM.
